Source: ChEMBL document CHEMBL3774354, “Discovery of Selective Histone Deacetylase 6 Inhibitors Using the Quinazoline as the Cap for the Treatment of Cancer” (J Med Chem, 2016)
Active and inactive are the calls of the source. The rule behind the calls is not given here.

Columns and labels:
[1] = system: HT-29; assay: Cytotoxicity against human HT-29 cells after 72 hrs by MTT assay; format: functional, cell-based; details: HT-29, 72 h
[2] = system: Ramos; assay: Antitumor activity against human Ramos cells xenografted in NOD/SCID mouse assessed as tumor mass change at 40 mg/kg, po q2d for 6 days; format: functional
[3] = molecular target: Histone deacetylase 1/2/3 (Homo sapiens) (UniProt Q13547+O15379+Q92769); details: MV4-11, 1000 nM
Description: Inhibition of HDAC1/2/3 in human MV4-11 cells assessed as upregulation of histone H3 acetylation at 1000 nM after 6 hrs by Western blot analysis

[4] = Volume of distribution at steady state in Sprague-Dawley rat at 12 mg/kg, iv administered by bolus injection measured up to 24 hrs by LC-MS/MS analysis; format: ADME, organism-based; details: in vivo, read-out: Vdss
[5] = system: Ramos; assay: Antitumor activity against human Ramos cells xenografted in orally dosed NOD/SCID mouse assessed as tumor mass reduction administered as q2d for 6 days; format: functional, organism-based
[6] = system: A-375; assay: Antiproliferative activity against human A375 cells after 72 hrs by MTT assay; format: functional, cell-based; details: A-375, 72 h
[7] = AUC (0 to infinity) in Sprague-Dawley rat at 12 mg/kg, po measured up to 24 hrs by LC-MS/MS analysis; format: ADME, organism-based; set-up: dose 12 mg/kg, route oral, time infinity; details: in vivo
[8] = molecular target: T1, Protein deacetylase HDAC6 (Homo sapiens, UniProt Q9UBN7); assay: Inhibition of HDAC6 in human HeLa cells assessed as induction of tubulin acetylation incubated for 6 hrs by cytoblot assay; format: cell-based
T1 sequence (Q9UBN7 whole entry): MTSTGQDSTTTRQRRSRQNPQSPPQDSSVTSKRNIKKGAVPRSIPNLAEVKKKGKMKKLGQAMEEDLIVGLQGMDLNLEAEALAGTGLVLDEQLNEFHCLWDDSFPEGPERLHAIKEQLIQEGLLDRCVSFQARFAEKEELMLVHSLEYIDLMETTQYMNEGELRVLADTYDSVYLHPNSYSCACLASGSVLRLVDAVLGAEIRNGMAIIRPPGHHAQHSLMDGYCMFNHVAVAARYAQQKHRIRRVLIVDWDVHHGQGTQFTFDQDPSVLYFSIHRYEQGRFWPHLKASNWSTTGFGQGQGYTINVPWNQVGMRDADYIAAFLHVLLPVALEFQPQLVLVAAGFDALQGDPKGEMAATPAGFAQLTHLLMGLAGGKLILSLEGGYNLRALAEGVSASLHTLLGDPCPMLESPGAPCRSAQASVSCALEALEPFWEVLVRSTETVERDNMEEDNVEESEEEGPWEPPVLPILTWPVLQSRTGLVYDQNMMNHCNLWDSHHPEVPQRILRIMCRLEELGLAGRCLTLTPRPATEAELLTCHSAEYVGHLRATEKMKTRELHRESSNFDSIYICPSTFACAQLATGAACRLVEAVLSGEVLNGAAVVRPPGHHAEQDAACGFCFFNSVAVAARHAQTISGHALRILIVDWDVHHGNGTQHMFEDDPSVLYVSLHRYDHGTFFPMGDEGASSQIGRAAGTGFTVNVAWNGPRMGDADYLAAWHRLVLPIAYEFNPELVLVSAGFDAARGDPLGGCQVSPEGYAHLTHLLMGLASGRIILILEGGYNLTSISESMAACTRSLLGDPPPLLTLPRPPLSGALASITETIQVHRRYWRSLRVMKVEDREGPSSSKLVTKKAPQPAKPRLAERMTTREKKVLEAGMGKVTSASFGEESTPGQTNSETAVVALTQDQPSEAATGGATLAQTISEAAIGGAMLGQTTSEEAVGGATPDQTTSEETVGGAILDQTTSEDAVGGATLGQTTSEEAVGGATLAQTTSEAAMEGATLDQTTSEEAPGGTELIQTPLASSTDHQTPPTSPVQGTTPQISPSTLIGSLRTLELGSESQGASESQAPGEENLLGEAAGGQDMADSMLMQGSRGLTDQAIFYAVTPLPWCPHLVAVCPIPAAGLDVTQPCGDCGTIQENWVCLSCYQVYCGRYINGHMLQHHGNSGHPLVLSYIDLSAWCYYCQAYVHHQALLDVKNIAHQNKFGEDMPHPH

[9] = system: HepG2; assay: Cytotoxicity against human HepG2 cells after 72 hrs by MTT assay; format: functional, cell-based; details: HepG2, 72 h
[10] = Cytotoxicity against human U266 cells after 72 hrs by MTT assay; format: functional, cell-based; details: U-266, 72 h
[11] = Cytotoxicity against human H460 cells after 72 hrs by MTT assay; format: functional, cell-based; details: NCI-H460, 72 h
[12] = molecular target: Histone deacetylase 11 (Homo sapiens) (UniProt Q96DB2); assay: Inhibition of recombinant HDAC11 (unknown origin) using AMC labeled AC-peptide as substrate at 10 uM incubated for 1 hr by fluorescence analysis
[13] = Systemic clearance in Sprague-Dawley rat at 12 mg/kg, po measured up to 24 hrs by LC-MS/MS analysis; format: ADME, organism-based; details: in vivo
[14] = molecular target: Histone deacetylase 11 (Homo sapiens, UniProt Q96DB2)
Description: Inhibition of recombinant HDAC11 (unknown origin) using AMC labeled AC-peptide as substrate incubated for 1 hr by fluorescence analysis

[15] = system: MV4-11; assay: Antitumor activity against human MV4-11 cells xenografted in NOD/SCID mouse assessed as tumor mass change at 50 mg/kg, iv q2d for 12 days; format: functional
[16] = Cytotoxicity against human SKOV3 cells after 72 hrs by MTT assay; format: functional, cell-based; details: SK-OV-3, 72 h
[17] = system: HeLa; assay: Antiproliferative activity against human HeLa cells after 72 hrs by MTT assay; format: functional, cell-based
[18] = system: Mus musculus; assay: Toxicity in Balb/c nude mouse xenografted with human HCT116 cells assessed as change in body weight at 25 mg/kg, po q2d for 8 days; format: organism-based, HCT-116; details: in vivo, 192 h
[19] = Cmax in Sprague-Dawley rat at 12 mg/kg, iv administered by bolus injection measured up to 24 hrs by LC-MS/MS analysis; format: ADME, organism-based; set-up: dose 12 mg/kg, route intravenous; details: in vivo
[20] = system: Mus musculus; assay: Toxicity in Balb/c nude mouse xenografted with human HCT116 cells assessed as change in body weight at 50 mg/kg, iv q2d for 9 days; format: organism-based, HCT-116; details: in vivo, 216 h
[21] = system: HeLa; assay: Induction of histone H3 acetylation in human HeLa cells incubated for 6 hrs by cytoblot assay; format: functional, cell-based
[22] = Antitumor activity against human HCT116 cells xenografted in Balb/c nude mouse assessed as tumor mass change at 25 mg/kg, po q2d for 8 days; format: functional, HCT-116

Sequence of Histone deacetylase 11 (Homo sapiens) (Q96DB2 whole entry): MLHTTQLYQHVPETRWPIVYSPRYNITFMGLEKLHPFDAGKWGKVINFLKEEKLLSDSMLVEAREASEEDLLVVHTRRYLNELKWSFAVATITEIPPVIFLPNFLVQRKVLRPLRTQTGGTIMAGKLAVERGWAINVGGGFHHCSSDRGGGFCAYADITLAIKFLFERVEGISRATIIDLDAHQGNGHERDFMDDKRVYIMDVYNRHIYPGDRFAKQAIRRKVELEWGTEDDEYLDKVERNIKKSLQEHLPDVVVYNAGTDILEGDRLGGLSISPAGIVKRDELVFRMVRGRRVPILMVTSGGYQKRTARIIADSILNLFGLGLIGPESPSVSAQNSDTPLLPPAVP
Sequence of Histone deacetylase 11 (Q96DB2 whole entry): as above

Question: What does the source list for `COc1ccc(N(C)c2nc(C)nc3ccccc23)cc1OCCCC(=O)NO`?
Answer: IC50 [1]: 72 nM; Activity [2]: 22.5%; inhibition [3]: Active; Vd [4]: 61.3 L/kg; inhibition [5]: Dose-dependent effect; IC50 [6]: 45 nM; AUC(0-inf) [7]: 1240 ng·h/mL; EC50 [8]: 58.9 nM; IC50 [9]: 41 nM; IC50 [10]: 14 nM; IC50 [11]: 55 nM; inhibition [12]: inactive; CL/F [13]: 215 mL/min/kg; IC50 [14]: > 10000 nM; Activity [15]: 55%; IC50 [16]: 50 nM; IC50 [17]: 49 nM; Activity [18]: -3.8%; Cmax [19]: 2210 ng/mL; Activity [20]: -5.7%; EC50 [21]: 1740 nM; Activity [22]: 60.4%
